pIC50: −log10 of the molar value. Activity calls are given as the source filed them. No cut-off for these calls is given here.
Columns and labels:
HeLa [1] = test: Anticancer activity in human HeLa cells assessed as inhibition of colony formation by anchorage-independent soft agar assay; assay type: functional
SK-MEL-28 [2] = test: Cytotoxicity against human SK-MEL-28 cells after 22 hrs by MTS assay; assay type: functional, cell-based; conditions: SK-MEL-28, 22 h
HeLa [3] = test: Cytotoxicity against human HeLa cells after 22 hrs by MTS assay; assay type: functional, cell-based
THP-1 [4] = test: Induction of apoptosis in human THP1 cells assessed as non-viable necrotic cells at 2000 nM after 24 hrs by FITC-conjugated annexin V and propidium iodide staining-based flow cytometry; assay type: functional
HL-60 [5] = test: Induction of apoptosis in human HL60 cells assessed as decrease in PARP level at 250 nM after 24 hrs by Western blot analysis; assay type: functional, cell-based
THP-1 [6] = test: Induction of apoptosis in human THP1 cells assessed as late apoptotic cells at 1000 nM after 24 hrs by FITC-conjugated annexin V and propidium iodide staining-based flow cytometry; assay type: functional
THP-1 [7] = test: Selectivity ratio of INCC50 for human THP1 cells to IC50 for human THP1 cells; assay type: functional
[8] = Effect on EGF-stimulated proliferation of ERK2-expressing mouse JB6 Cl41 cells assessed as cell viability at 125 nM after 22 hrs by MTS assay; assay type: functional; conditions: JB6 Cl41, 22 h, read-out: Activity
THP-1 [9] = test: Induction of apoptosis in human THP1 cells after 24 hrs by FITC-conjugated annexin V and propidium iodide staining-based flow cytometry; assay type: functional, cell-based
[10] = target: Cellular tumor antigen p53 (Mus musculus) (UniProt P02340); test: Inhibition of p53-mediated transcriptional activity in mouse JB6 Cl41 cells at 125 to 250 nM after 24 hrs by luciferase reporter gene assay relative to control; assay type: cell-based
[11] = Inhibition of EGF-stimulated colony formation in mouse JB6 Cl41 cells by anchorage-independent soft agar assay; assay type: functional
[12] = target: Cellular tumor antigen p53 (Mus musculus) (UniProt P02340); test: Inhibition of p53-mediated transcriptional activity in mouse JB6 Cl41 cells after 24 hrs by luciferase reporter gene assay; assay type: cell-based; conditions: TDE = time-dependent effect
THP-1 [13] = test: Cytotoxicity against human THP1 cells after 22 hrs by MTS assay; assay type: functional, cell-based; conditions: THP-1, 22 h
[14] = target: Cellular tumor antigen p53 (Mus musculus) (UniProt P02340); test: Inhibition of p53-mediated transcriptional activity in mouse JB6 Cl41 cells at 125 to 500 nM by luciferase reporter gene assay; assay type: cell-based; conditions: TDE = time-dependent effect
HeLa [15] = test: Selectivity ratio of INCC50 for human HeLa cells to IC50 for human HeLa cells; assay type: functional
HL-60 [16] = test: Induction of apoptosis in human HL60 cells assessed as early apoptotic cells at 50 nM after 24 hrs by FITC-conjugated annexin V and propidium iodide staining-based flow cytometry; assay type: functional
JB6 Cl41 = test: Effect on EGF-stimulated proliferation of mouse JB6 Cl41 cells at 125 nM after 22 hrs by MTS assay; assay type: functional, cell-based
THP-1 [17] = test: Induction of apoptosis in human THP1 cells assessed as viable cells at 1000 nM after 24 hrs by FITC-conjugated annexin V and propidium iodide staining-based flow cytometry; assay type: functional; conditions: THP-1, 24 h, read-out: Activity
THP-1 [18] = test: Induction of apoptosis in human THP1 cells assessed as early apoptotic cells at 1000 nM after 24 hrs by FITC-conjugated annexin V and propidium iodide staining-based flow cytometry; assay type: functional
THP-1 [19] = test: Induction of apoptosis in human THP1 cells assessed as non-viable necrotic cells at 1000 nM after 24 hrs by FITC-conjugated annexin V and propidium iodide staining-based flow cytometry; assay type: functional
HL-60 [20] = test: Induction of apoptosis in human HL60 cells assessed as total apoptotic cells at 1000 nM after 24 hrs by FITC-conjugated annexin V and propidium iodide staining-based flow cytometry; assay type: functional
HL-60 [21] = test: Induction of apoptosis in human HL60 cells assessed as decrease in Bid protein level at 250 nM after 24 hrs by Western blot analysis; assay type: functional, cell-based
THP-1 [22] = test: Induction of apoptosis in human THP1 cells assessed as late apoptotic cells at 2000 nM after 24 hrs by FITC-conjugated annexin V and propidium iodide staining-based flow cytometry; assay type: functional
SK-MEL-28 [23] = test: Anticancer activity in human SK-MEL-28 cells assessed as inhibition of colony formation by anchorage-independent soft agar assay; assay type: functional
DLD-1 = test: Cytotoxicity against human DLD1 cells after 22 hrs by MTS assay; assay type: functional, cell-based; conditions: DLD-1, 22 h
[24] = target: Cellular tumor antigen p53 (Mus musculus) (UniProt P02340); test: Inhibition of p53-mediated transcriptional activity in mouse JB6 Cl41 cells at 375 to 500 nM after 6 hrs by luciferase reporter gene assay relative to control; assay type: cell-based
[25] = Selectivity ratio of INCC50 for mouse JB6 Cl41 cells to IC50 for mouse JB6 Cl41 cells; assay type: functional
[26] = Effect on EGF-stimulated proliferation of JNK1-expressing mouse JB6 Cl41 cells assessed as cell death at 250 nM after 22 hrs by MTS assay; assay type: functional
THP-1 [27] = test: Induction of apoptosis in human THP1 cells assessed as viable cells at 2000 nM after 24 hrs by FITC-conjugated annexin V and propidium iodide staining-based flow cytometry; assay type: functional; conditions: THP-1, 24 h, read-out: Activity
[28] = Inhibition of EGF-stimulated viability of mouse JB6 Cl41 cells after 22 hrs by MTS assay; assay type: functional, cell-based; conditions: JB6 Cl41, 22 h
[29] = target: Transcription factor Jun (Mus musculus) (UniProt P05627); test: Induction of AP1-mediated transcriptional activity in mouse JB6 Cl41 cells at 125 to 250 nM after 24 hrs by luciferase reporter gene assay relative to control; assay type: cell-based
THP-1 [30] = test: Induction of apoptosis in human THP1 cells assessed as early apoptotic cells at 2000 nM after 24 hrs by FITC-conjugated annexin V and propidium iodide staining-based flow cytometry; assay type: functional

Cellular tumor antigen p53 (Mus musculus), sequence (P02340 whole entry): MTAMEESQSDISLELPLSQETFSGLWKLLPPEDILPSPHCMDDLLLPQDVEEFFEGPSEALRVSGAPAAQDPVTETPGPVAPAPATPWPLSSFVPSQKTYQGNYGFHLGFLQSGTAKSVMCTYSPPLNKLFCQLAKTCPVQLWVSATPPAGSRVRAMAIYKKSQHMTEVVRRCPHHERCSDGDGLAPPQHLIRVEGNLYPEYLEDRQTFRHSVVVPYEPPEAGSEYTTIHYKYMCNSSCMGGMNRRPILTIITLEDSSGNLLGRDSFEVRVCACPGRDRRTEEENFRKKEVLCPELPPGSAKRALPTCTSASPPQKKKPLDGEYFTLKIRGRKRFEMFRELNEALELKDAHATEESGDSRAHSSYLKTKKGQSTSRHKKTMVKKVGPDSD
Transcription factor Jun (Mus musculus), sequence (P05627 whole entry): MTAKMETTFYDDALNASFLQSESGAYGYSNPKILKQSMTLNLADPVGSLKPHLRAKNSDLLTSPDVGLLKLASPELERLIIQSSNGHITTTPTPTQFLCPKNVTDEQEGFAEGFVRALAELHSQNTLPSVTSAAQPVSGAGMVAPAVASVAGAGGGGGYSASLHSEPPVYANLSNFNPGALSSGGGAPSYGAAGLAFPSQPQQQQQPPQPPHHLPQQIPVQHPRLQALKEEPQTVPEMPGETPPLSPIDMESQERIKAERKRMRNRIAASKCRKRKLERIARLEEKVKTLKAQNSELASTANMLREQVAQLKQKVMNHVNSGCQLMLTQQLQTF

`O=C1c2ccc(Br)cc2-[n+]2ccc3c([nH]c4ccccc43)c21.[Cl-]` showed an INCC50 (HeLa [1]) of 108.1 nM, a pIC50 (SK-MEL-28 [2]) of 6.11 and a pIC50 (HeLa [3]) of 6.47. For the same compound, the Activity (THP-1 [4]) was 23.5%, the inhibition (HL-60 [5]) was “Active” and the Activity (THP-1 [6]) was 23.2%. The Selectivity ratio (THP-1 [7]) was 8.7, the viability at 0.125 µM [8] was 30% and the Activity (THP-1 [9]) was “Dose-dependent effect”. For the same compound, the inhibition [10] was 40%, the INCC50 [11] was 106.4 nM and the inhibition [12] was “tde”. For the same compound, the pIC50 (THP-1 [13]) was 6.28, the inhibition [14] was “tde” and the Selectivity ratio (HeLa [15]) was 3.1. The Activity (HL-60 [16]) was 5%, the Activity (JB6 Cl41) was “inactive” and the viability at 1 µM (THP-1 [17]) was 40.9%. For the same compound, the Activity (THP-1 [18]) was 17.9%, the Activity (THP-1 [19]) was 18% and the Activity (HL-60 [20]) was 90%. For the same compound, the inhibition (HL-60 [21]) was “Active”, the Activity (THP-1 [22]) was 25.5% and the INCC50 (SK-MEL-28 [23]) was 162.9 nM. The pIC50 (DLD-1) was 6.61, the inhibition [24] was 30% and the Selectivity ratio [25] was 2.7. The Activity [26] was 100%, the viability at 2 µM (THP-1 [27]) was 25.8% and the pIC50 [28] was 6.55. The fold change (FC) [29] was 1.5 and the Activity (THP-1 [30]) was 25.8%.

Source: ChEMBL document CHEMBL1165930, “The anticancer activity of 3- and 10-bromofascaplysins is mediated by caspase-8, -9, -3-dependent apoptosis” (Bioorg Med Chem, 2010)
